From ChEMBL document CHEMBL6120982, “Cell-penetrating anti-sense peptide nucleic acids targeting sulfatase 2 inhibit adipogenesis in human mesenchymal stem cells” (Bioorg Med Chem, 2024)
The source made the active and inactive calls. No cut-off for these calls is given here.

Legend:
[1] = tested on: DNA; assay: Binding affinity to c-DNA (unknown origin) with mismatch bases assessed as increase in melting temperature by UV-vis spectrophotometric analysis; type: nucleic-acid assay
[2] = tested on: DNA; assay: Binding affinity to 10-mer DNA (unknown origin) assessed as melting temperature at 4 uM by UV-Vis spectrophotometric analysis; type: nucleic-acid assay
[3] = tested on: DNA; assay: Binding affinity to N-terminal of 10-mer c-DNA (unknown origin) assessed as melting temperature at 4 uM by UV-Vis spectrophotometric analysis; type: nucleic-acid assay
[4] = tested on: Mesenchymal stem cells; assay: Effect on osteogenesis in ascorbic acid/dexamethasone/beta-glycerol phosphate differentiated human BMMSC cells; type: functional, cell-based
[5] = tested on: DNA; assay: Binding affinity to C-terminal of 10-mer c-DNA (unknown origin) assessed as melting temperature at 4 uM by UV-Vis spectrophotometric analysis; type: nucleic-acid assay
[6] = tested on: Mesenchymal stem cells; assay: Anti-adipogenic activity in insulin/dexamthasone/pioglitazone/IBMX differentiated human BMMSC cells assessed as downregulation of adiponectin protein secretion by ELISA; type: functional, cell-based
[7] = tested on: Mesenchymal stem cells; assay: Inhibition of SULF2 mRNA expression in human BMMSC cells by RT-qPCR analysis; type: functional, cell-based; details: dose 0.01-1 µM
[8] = tested on: Mesenchymal stem cells; assay: Cytotoxicity against human BMMSC cells assessed as effect on cell viability upto 1 uM incubated for 24 hrs by CCK8 assay; type: toxicity, cell-based
[9] = tested on: Mesenchymal stem cells; assay: Inhibition of SULF2 mRNA expression in human BMMSC cells at 0.1 uM by RT-qPCR analysis; type: functional, cell-based
[10] = tested on: Mesenchymal stem cells; assay: Anti-adipogenic activity in insulin/dexamthasone/pioglitazone/IBMX differentiated human BMMSC cells assessed as downregulation of adiponectin protein secretion at 1 uM by ELISA; type: functional, cell-based

For `NCCCCCNc1nc(N)c2ncn(CC(=O)N(CCNC(=O)CN(CCNC(=O)CN(CCNC(=O)CN(CCN)C(=O)Cn3cnc4c(N)ncnc43)C(=O)Cn3cnc4c(=O)[nH]c(N)nc43)C(=O)Cn3ccc(N)nc3=O)CC(=O)NCCN(CC(=O)NCCN(CC(=O)NCCN(CC(=O)NCCN(CC(=O)NCCN(CC(=O)NCCN(CC(N)=O)C(=O)Cn3cnc4c(N)ncnc43)C(=O)Cn3ccc(N)nc3=O)C(=O)Cn3cnc4c(N)nc(NCCCCCN)nc43)C(=O)Cn3cnc4c(=O)[nH]c(N)nc43)C(=O)Cn3cnc4c(N)nc(NCCCCCN)nc43)C(=O)Cn3ccc(N)nc3=O)c2n1`, the Activity [1] was “inactive” and the Tm [2] was 73.6 °C.

`Cc1cn(CC(=O)N(CCNC(=O)CN(CCNC(=O)CN(CCNC(=O)CN(CCNC(=O)CN(CCNC(=O)CN(CCNC(=O)CN(CCNC(=O)CN(CCNC(=O)CN(CCNC(=O)CN(CCNC(=O)CN(CCNC(=O)CN(CCNC(=O)CN(CCNC(=O)CN(CCNC(=O)CN(CCNC(=O)CN(CCNC(=O)CN(CCNC(=O)OCCC2c3ccccc3-c3ccccc32)C(=O)Cn2cnc3c(=O)[nH]c(N)nc32)C(=O)Cn2cnc3c(=O)[nH]c(NCCCCCCN)nc32)C(=O)Cn2cnc3c(=O)[nH]c(N)nc32)C(=O)Cn2ccc(N)nc2=O)C(=O)Cn2cnc3c(N)nc(NCCCCCN)nc32)C(=O)Cn2cnc3c(=O)[nH]c(N)nc32)C(=O)Cn2ccc(N)nc2=O)C(=O)Cn2cnc3c(N)ncnc32)C(=O)Cn2ccc(N)nc2=O)C(=O)Cn2cnc3c(N)nc(NCCCCCN)nc32)C(=O)Cn2cc(C)c(=O)[nH]c2=O)C(=O)Cn2cnc3c(=O)[nH]c(N)nc32)C(=O)Cn2cnc3c(=O)[nH]c(N)nc32)C(=O)Cn2cnc3c(=O)[nH]c(NCCCCCCN)nc32)C(=O)Cn2cc(C)c(=O)[nH]c2=O)C(=O)Cn2cnc3c(=O)[nH]c(N)nc32)CC(N)=O)c(=O)[nH]c1=O` was tested, and the Tm [3] was 83.5 °C, the Activity [4] was “inactive” and the Tm [5] was 75.5 °C. The IC50 [6] was greater than 1 µM, the inhibition [7] was “Dose-dependent-effect” and the Activity [8] was “Non-toxic”. For the same molecule, the inhibition [9] was “Active” and the Activity [10] was “Active”.

`Cc1cn(CC(=O)N(CCNC(=O)CN(CCNC(=O)CN(CCNC(=O)CN(CCNC(=O)CN(CCNC(=O)CN(CCNC(=O)CN(CCNC(=O)CN(CCNC(=O)CN(CCNC(=O)CN(CCNC(=O)CN(CCNC(=O)CN(CCNC(=O)CN(CCNC(=O)CN(CCNC(=O)CN(CCNC(=O)CN(CCNC(=O)CN(CCNC(=O)CN(CCNC(=O)CN(CCNC(=O)OCCC2c3ccccc3-c3ccccc32)C(=O)Cn2ccc(N)nc2=O)C(=O)Cn2cc(C)c(=O)[nH]c2=O)C(=O)Cn2cc(C)c(=O)[nH]c2=O)C(=O)Cn2cc3cc(COCCN)[nH]c3nc2=O)C(=O)Cn2cc(C)c(=O)[nH]c2=O)C(=O)Cn2cc(C)c(=O)[nH]c2=O)C(=O)Cn2cc(C)c(=O)[nH]c2=O)C(=O)Cn2cc(C)c(=O)[nH]c2=O)C(=O)Cn2cc(C)c(=O)[nH]c2=O)C(=O)Cn2cc(C)c(=O)[nH]c2=O)C(=O)Cn2cc(C)c(=O)[nH]c2=O)C(=O)Cn2cnc3c(=O)[nH]c(NCCCCCCN)nc32)C(=O)Cn2ccc(N)nc2=O)C(=O)Cn2cc(C)c(=O)[nH]c2=O)C(=O)Cn2cnc3c(=O)[nH]c(N)nc32)C(=O)Cn2cnc3c(N)nc(NCCCCCN)nc32)C(=O)Cn2cc(C)c(=O)[nH]c2=O)C(=O)Cn2ccc(N)nc2=O)CC(=O)NCCN(CC(N)=O)C(=O)Cn2cnc3c(=O)[nH]c(NCCCCCCN)nc32)c(=O)[nH]c1=O` was tested, and the Activity [4] was “inactive”, the Tm [5] was 70 °C and the IC50 [6] was greater than 1 µM. For the same molecule, the inhibition [7] was “Dose-dependent-effect”, the Activity [8] was “Non-toxic” and the inhibition [9] was “Mild_effect”. For the same molecule, the Activity [10] was “Active”.
